In PubChem BioAssay AID1996:
In brackets after ≈: the same amount, converted by molar mass.

Conditions: buffer; pH 7.4; 200.0 µM

| solubility kinetic [µg/mL] | SMILES |
| --- | --- |
| 12.5 (≈ 47 µM) | Cc1ccc(N2C(=O)CC(C)(C)CC2=O)cc1Cl |
| 19.4 (≈ 72.6 µM) | O=C1CCCc2nc3c(cc21)C(O)Oc1ccccc1-3 (stereo not given) |
| > 48 | COc1cccc(C(=O)OCC(=O)Nc2cc(C)on2)c1OC |
| 43.2 (≈ 133 µM) | Cn1c(=O)c2c(nc(N3CCc4ccccc4C3)n2C)n(C)c1=O |
| < 0.2 | Cc1cccc(NC(=O)c2cc3cc([N+](=O)[O-])ccc3s2)n1 |
| > 47.2 | CC(c1ccccc1)C1CC(=O)N(c2cc(Cl)ccn2)C1=O (stereo not given) |
| 2.9 (≈ 9.14 µM) | COc1ccc(C(=O)NC2CCSc3ccccc32)cc1F (stereo not given) |
| 36.5 (≈ 146 µM) | O=C(O)c1ccccc1OCCN1CCCC1=O |
| > 42.6 | O=C(COC(=O)COc1ccc(Cl)cc1)NC1CC1 |
| 35.2 (≈ 138 µM) | c1coc(CN2CNc3nc4ccccc4n3C2)c1 |
| > 27.6 | c1ccc(NCc2ccncc2)cc1 |
| 29.3 (≈ 135 µM) | Cc1cc(C)cc(OCCn2ccnc2)c1 |
| 47.5 (≈ 109 µM) | COc1ccccc1N(C)S(=O)(=O)c1ccc(Cl)c(C(=O)NCc2ccco2)c1 |
| 49.1 (≈ 150 µM) | O=C(NCCCN1CCOCC1)c1ccc(Cl)cc1[N+](=O)[O-] |
| 30.7 (≈ 111 µM) | COc1ccccc1OCCCCN1CCC(C)CC1 |
| 0.4 (≈ 1.28 µM) | COC(=O)c1sccc1NC(=S)N(C)C1CCCCC1 |
| > 43.1 | O=Cc1ccc(C(=O)OCC(=O)NCc2ccco2)cc1 |
| 8.7 (≈ 23.9 µM) | Cn1cccc1C(=O)NC(=O)COC(=O)c1ccc(S(C)(=O)=O)cc1 |
| 69.5 (≈ 148 µM) | CCOC(=O)c1ccc(S(=O)(=O)Nc2cc(S(=O)(=O)N3CCOCC3)ccc2O)cc1 |
| 9.2 (≈ 21.3 µM) | CN(CC(=O)Nc1cccc(F)c1)C(=O)c1ccc(OCc2cn3ccccc3n2)cc1 |
| > 42.9 | COc1ccc(/C=C(\C#N)C(=O)N2COCC2(C)C)cc1 |
| < 0.4 | Cc1ccc(/C=C2/SC(=S)N(CCC(=O)N3CCOCC3)C2=O)cc1 |
| 32.4 (≈ 128 µM) | CCOc1ccc2c(c1)ncn2Cc1ccccc1 |
| 34.9 (≈ 125 µM) | C=CCON/C(CCC)=C1\C(=O)CC(C)(C)CC1=NC |
| > 46.6 | Cc1ccc(CNC(=O)C2CCCN(c3cnccn3)C2)cc1 (stereo not given) |

Second part, the compound before the results:

| SMILES | solubility kinetic [µg/mL] |
| --- | --- |
| Nn1cnnc1SCC(=O)Nc1ccc2c(c1)OCO2 | > 44 |
| O=C1NC(=Nc2cccnc2)S/C1=C\c1cccc(F)c1 | 3.2 (≈ 10.7 µM) |
| O=C(c1cccs1)c1c[nH]cc1-c1ccccc1 | 4.4 (≈ 17.4 µM) |
| CN(CC(=O)NCc1ccncc1)S(=O)(=O)c1ccc(Cl)cc1 | > 53.1 |
| O=[N+]([O-])c1ccc(Cc2ccccn2)c([N+](=O)[O-])c1 | 33.6 (≈ 130 µM) |
| O=C(CCNC(=O)c1ccccc1)NC1CCCc2ccccc21 (stereo not given) | 43.4 (≈ 135 µM) |
| CCN(c1ccccc1)S(=O)(=O)c1ccc(C(=O)N2CCOCC2)cc1 | > 56.2 |
| CC(C)CC(=O)Nc1ccc(Cc2ccncc2)cc1 | > 40.3 |
| CN(C)C(=O)Oc1ccc(Br)c2ccccc12 | 35 (≈ 119 µM) |
| N/C(=N\OC(=O)c1cc([N+](=O)[O-])ccc1Cl)c1ccccn1 | 11.2 (≈ 34.9 µM) |
| O=c1oc2ccc(Cl)cc2nc1/C=C(\O)c1cccs1 | 20.9 (≈ 68.4 µM) |
| COc1cccc(/C=c2\s/c(=C\C(=O)C(C)(C)C)[nH]c2=O)c1 | 2.1 (≈ 6.62 µM) |
| CCOc1ccc2nc(SCC(=O)Nc3cc(C)on3)c(C)cc2c1 | < 0.3 |
| COc1ccc(OC)c(NC(=O)Nc2cnccn2)c1 | 3.3 (≈ 12 µM) |
| CCN(CC)c1ccc2c(Nc3ccccc3)c(C=O)c(=O)oc2c1 | < 0.4 |
| O=S(=O)(Nc1ccc(Nc2ccccc2)cc1)c1ccc(F)cc1 | 3.5 (≈ 10.2 µM) |
| CC(=O)Nc1ccc(N2C(=O)CSC2c2ccccc2)cc1 (stereo not given) | > 46.9 |
| COc1ccc2oc(=O)c(C(=O)NCc3ccco3)cc2c1 | 4.8 (≈ 16 µM) |

| SMILES | solubility kinetic [µg/mL] |
| --- | --- |
| CCCCCCCCNc1nc(Cl)nc(NCCN2CCOCC2)n1 | 0.5 (≈ 1.35 µM) |
| Cc1ccc(C(=O)C2CCN(CC(=O)NC3CCCC3)CC2)cc1 | > 49.3 |
| NC(=O)c1c(NC(=O)c2cccnc2)sc2c1CCCCC2 | 6 (≈ 19 µM) |
| CC1CCCN(C(=O)COC(=O)Cc2ccc(Cl)cc2)C1 (stereo not given) | 29.8 (≈ 96.2 µM) |
| CN(c1ccccc1C(=O)Nc1ccc2ccccc2c1)S(C)(=O)=O | 48.6 (≈ 137 µM) |
| CC(=O)c1ccc(NC(=S)N2CCCC(C(F)(F)F)C2)cc1 (stereo not given) | 47.6 (≈ 144 µM) |
| Cn1c(N)c(C(=O)COC(=O)C2CCCN2C(=O)c2cccs2)c(=O)n(C)c1=O (stereo not given) | 56.8 (≈ 135 µM) |
| COc1ccc(/C=C/C(=O)OCC(=O)NC2CCCCCCC2)cc1 | 7.6 (≈ 22 µM) |
| CCN(C(=S)Nc1ccc(OC(F)F)cc1)C1CCCCC1 | 5.4 (≈ 16.4 µM) |
| CC(C)c1cc(C(=O)O)c2ccccc2n1 | 28.2 (≈ 131 µM) |
| Cl.c1ccc(SCCCCN2CCOCC2)cc1 | 38.2 |
| Cc1cc2sc(NC(=O)c3ccco3)nc2cc1Cl | 0.6 (≈ 2.05 µM) |
| Cc1noc(C)c1C(=O)NCc1ccccc1F | 34.7 (≈ 140 µM) |
| O=C(Oc1ccc([N+](=O)[O-])cc1)C1CC(=O)N(c2ccc3c(c2)OCCO3)C1 (stereo not given) | > 57.7 |
| COc1ccc(S(N)(=O)=O)cc1C(=O)OCC(=O)N1CCCC(C)C1 (stereo not given) | > 55.6 |
| COC(=O)c1cnc[nH]1 | > 18.9 |
| COc1ccccc1N1CCN(C(=O)/C=C/c2cccc([N+](=O)[O-])c2)CC1 | 3.6 (≈ 9.8 µM) |
